Source: patent US6670345B1 (Dabur Research Foundation, priority 1997, dated 2003)
Converted amounts (≈) assume the structure as drawn.

Experiments:
Settings in all cases: 72 hours
[1] = system: ovarian cancer cells (PA-1); assay: MTT cytotoxicity assay, ovarian cancer cells (PA-1); type: cell-based, human
Description: (§1) After 72 hours, the assay was terminated and percent cyotoxicities calculated.

[2] = system: lymphoma cells (U937); assay: MTT cytotoxicity assay, lymphoma cells (U937); type: cell-based, human
Description: as §1

[3] = system: human prostate (DU145); assay: MTT cytotoxicity assay, human prostate (DU145); type: cell-based
Description: as §1

[4] = system: leukemia cells (MOLT-4); assay: MTT cytotoxicity assay, leukemia cells (MOLT-4); type: cell-based, human
Description: as §1

[5] = system: human colon (HT29); assay: MTT cytotoxicity assay, human colon (HT29); type: cell-based
Description: as §1

[6] = system: human lung (L132); assay: MTT cytotoxicity assay, human lung (L132); type: cell-based
Description: as §1

[7] = system: human larynx (HeP.2); assay: MTT cytotoxicity assay, human larynx (HeP.2); type: cell-based
Description: as §1

Structure (SMILES) | ED50 Ovary PA-I [1] | ED50 Lymphoma U937 [2] | ED50 Prostate DU 145 [3] | ED50 Leukemia MOLT-4 [4] | ED50 Colon HT-29 [5] | ED50 Lung L 132 [6] | ED50 Larynx Hep. 2 [7]
C=CC(=O)OC(=O)C12CCC(C(C)C)C1C1CCC3C4(C)CCC(O)C(C)(C)C4CCC3(C)C1(C)CC2 (centres unmarked) [Derivative 1103] | 1.5 µg/mL (≈ 2.93 µM) | 1.0 µg/mL (≈ 1.95 µM) | >4 µg/mL | 1.9 µg/mL (≈ 3.71 µM) | 10.0 µg/mL (≈ 19.5 µM) | 4.0 µg/mL (≈ 7.8 µM) | 3.0 µg/mL (≈ 5.85 µM)
CC(C)C1CCC2(C(=O)O)CCC3(C)C(CCC4C5(C)CCC(N=Cc6ccc(F)cc6F)C(C)(C)C5CCC43C)C12 (centres unmarked) [Derivative 1065] | 1.4 µg/mL (≈ 2.41 µM) | 1.9 µg/mL (≈ 3.27 µM) | 2.5 µg/mL (≈ 4.3 µM) | 1.0 µg/mL (≈ 1.72 µM) | 4.9 µg/mL (≈ 8.42 µM) | 3.4 µg/mL (≈ 5.84 µM) | 2.6 µg/mL (≈ 4.47 µM)
CC(C)C1CCC2(C(=O)O)CCC3(C)C(CCC4C5(C)CCC(OC(=O)c6ccc(F)cc6F)C(C)(C)C5CCC43C)C12 (centres unmarked) [Derivative 937] | 1.6 µg/mL (≈ 2.67 µM) | 1.2 µg/mL (≈ 2 µM) | 2.5 µg/mL (≈ 4.17 µM) | 0.9 µg/mL (≈ 1.5 µM) | 1.7 µg/mL (≈ 2.84 µM) | 1.1 µg/mL (≈ 1.84 µM) | 5.9 µg/mL (≈ 9.85 µM)
C=C(C)C1CCC2(C(=O)O)CCC3(C)C(CCC4C5(C)CCC(OC(=O)c6ccc(CCCCC)cc6)C(C)(C)C5CCC43C)C12 (centres unmarked) [Derivative 1104] | 0.8 µg/mL (≈ 1.27 µM) | 1.1 µg/mL (≈ 1.74 µM) | 2.0 µg/mL (≈ 3.17 µM) | 1.5 µg/mL (≈ 2.38 µM) | 3.5 µg/mL (≈ 5.55 µM) | 5.9 µg/mL (≈ 9.35 µM) | 1.7 µg/mL (≈ 2.69 µM)
CC(C)C1CCC2(C(=O)O)CCC3(C)C(CCC4C5(C)CCC(N=Cc6ccc(F)c(F)c6)C(C)(C)C5CCC43C)C12 (centres unmarked) [Derivative 998] | 1.2 µg/mL (≈ 2.06 µM) | 1.6 µg/mL (≈ 2.75 µM) | 2.2 µg/mL (≈ 3.78 µM) | 1.9 µg/mL (≈ 3.27 µM) | 4.0 µg/mL (≈ 6.87 µM) | 2.5 µg/mL (≈ 4.3 µM) | 3.0 µg/mL (≈ 5.16 µM)
CC(C)C1CCC2(C(=O)O)CCC3(C)C(CCC4C5(C)CCC(NC(=O)CCl)C(C)(C)C5CCC43C)C12 (centres unmarked) [Derivative 1022] | 0.6 µg/mL (≈ 1.12 µM) | 5.5 µg/mL (≈ 10.3 µM) | >10 µg/mL | 1.8 µg/mL (≈ 3.37 µM) | >10 µg/mL | 4.7 µg/mL (≈ 8.8 µM) | 3.5 µg/mL (≈ 6.55 µM)
C=C(C)C1CCC2(C(=O)O)CCC3(C)C(CCC4C5(C)CCC(OC(=O)c6cccc(C(F)(F)F)c6)C(C)(C)C5CCC43C)C12 (centres unmarked) [Derivative 939] | >4.0 µg/mL | 5.7 µg/mL (≈ 9.06 µM) | >10 µg/mL | 1.4 µg/mL (≈ 2.23 µM) | >10 µg/mL | 2.7 µg/mL (≈ 4.29 µM) | 4.0 µg/mL (≈ 6.36 µM)
CC(C)C1CCC2(C(=O)O)CCC3(C)C(CCC4C5(C)CCC(OC(=O)c6ccccc6C(F)(F)F)C(C)(C)C5CCC43C)C12 (centres unmarked) [Derivative 943] | >4.0 µg/mL | 3.2 µg/mL (≈ 5.07 µM) | >4 µg/mL | 1.6 µg/mL (≈ 2.54 µM) | >10 µg/mL | 4.0 µg/mL (≈ 6.34 µM) | 2.0 µg/mL (≈ 3.17 µM)
C=C(C)C1CCC2(C(=O)O)CCC3(C)C(CCC4C5(C)CCC(OC(=O)c6cc(F)cc(F)c6)C(C)(C)C5CCC43C)C12 (centres unmarked) [Derivative 935] | – | 2.6 µg/mL (≈ 4.36 µM) | 3.2 µg/mL (≈ 5.36 µM) | 0.6 µg/mL (≈ 1.01 µM) | >10 µg/mL | 1.2 µg/mL (≈ 2.01 µM) | >10 µg/mL
CC(C)C1CCC2(C(=O)O)CCC3(C)C(CCC4C5(C)CCC(=NNC(=O)c6ccccc6)C(C)(C)C5CCC43C)C12 (centres unmarked) [Derivative 807] | 1.7 µg/mL (≈ 2.96 µM) | – | >10 µg/mL | 1.0 µg/mL (≈ 1.74 µM) | – | <0.5 µg/mL | 4.0 µg/mL (≈ 6.96 µM)
CC(C)C1CCC2(C(=O)OC(=O)C34CCC(C(C)C)C3C3CCC5C6(C)CC(Br)C(=O)C(C)(C)C6CCC5(C)C3(C)CC4)CCC3(C)C(CCC4C5(C)CC(Br)C(=O)C(C)(C)C5CCC43C)C12 (centres unmarked) [Derivative 1163] | >4.0 µg/mL | 3.8 µg/mL (≈ 3.61 µM) | 6.0 µg/mL (≈ 5.7 µM) | 1.6 µg/mL (≈ 1.52 µM) | 7.3 µg/mL (≈ 6.93 µM) | 6.5 µg/mL (≈ 6.17 µM) | 5.0 µg/mL (≈ 4.75 µM)
C=C(C)C1CCC2(C(=O)O)CCC3(C)C(CCC4C5(C)CCC(OC(=O)c6ccccc6C(F)(F)F)C(C)(C)C5CCC43C)C12 (centres unmarked) [Derivative 942] | >4.0 µg/mL | 2.2 µg/mL (≈ 3.5 µM) | >10 µg/mL | 0.5 µg/mL (≈ 0.795 µM) | >10 µg/mL | 4.0 µg/mL (≈ 6.36 µM) | 10.0 µg/mL (≈ 15.9 µM)
COC(=O)COC(=O)C12CCC(C(C)C)C1C1CCC3C4(C)CCC(NC(C)=O)C(C)(C)C4CCC3(C)C1(C)CC2 (centres unmarked) [Derivative 1025] | >4.0 µg/mL | >10 µg/mL | >4 µg/mL | 1.0 µg/mL (≈ 1.75 µM) | >10 µg/mL | 3.2 µg/mL (≈ 5.6 µM) | >10 µg/mL
COc1ccc(NNC2CCC3(C)C(CCC4(C)C3CCC3C5C(C(C)C)CCC5(C(=O)O)CCC34C)C2(C)C)cc1 (centres unmarked) [Derivative 912] | – | 1.2 µg/mL (≈ 2.07 µM) | 8.5 µg/mL (≈ 14.7 µM) | 1.0 µg/mL (≈ 1.73 µM) | 0.35 µg/mL (≈ 0.605 µM) | >4 µg/mL | 7.0 µg/mL (≈ 12.1 µM)
CC(C)C1CCC2(C(=O)O)CCC3(C)C(CCC4C5(C)CCC(OC(=O)c6cccc(C(F)(F)F)c6)C(C)(C)C5CCC43C)C12 (centres unmarked) [Derivative 940] | 3.8 µg/mL (≈ 6.02 µM) | 0.8 µg/mL (≈ 1.27 µM) | >4 µg/mL | 0.4 µg/mL (≈ 0.634 µM) | >10 µg/mL | 2.6 µg/mL (≈ 4.12 µM) | 5.4 µg/mL (≈ 8.56 µM)
C=C(C)C1CCC2(C(=O)O)CCC3(C)C(CCC4C5(C)CCC(OC(=O)C67CCC(C(C)C)C6C6CCC8C9(C)CC(Br)C(=O)C(C)(C)C9CCC8(C)C6(C)CC7)C(C)(C)C5CCC43C)C12 (centres unmarked) [Derivative 1155] | >4.0 µg/mL | >10 µg/mL | >10 µg/mL | 1.1 µg/mL (≈ 1.13 µM) | >10 µg/mL | >10 µg/mL | >10 µg/mL
CC(C)C1CCC2(C(=O)OC3CCC4(C)C(CCC5(C)C4CCC4C6C(C(C)C)CCC6(C(=O)O)CCC45C)C3(C)C)CCC3(C)C(CCC4C5(C)CC(Br)C(=O)C(C)(C)C5CCC43C)C12 (centres unmarked) [Derivative 1161] | 1.2 µg/mL (≈ 1.23 µM) | 0.3 µg/mL (≈ 0.307 µM) | 0.4 µg/mL (≈ 0.41 µM) | 0.34 µg/mL (≈ 0.348 µM) | 3.5 µg/mL (≈ 3.58 µM) | 3.5 µg/mL (≈ 3.58 µM) | 1.4 µg/mL (≈ 1.43 µM)
CC(C)C1CCC2(C(=O)O)CCC3(C)C(CCC4C5(C)CCC(NNc6ccccc6)C(C)(C)C5CCC43C)C12 (centres unmarked) [Derivative 878] | 3.5 µg/mL (≈ 6.38 µM) | 0.4 µg/mL (≈ 0.729 µM) | – | 1.6 µg/mL (≈ 2.92 µM) | 1.75 µg/mL (≈ 3.19 µM) | 0.8 µg/mL (≈ 1.46 µM) | 2.25 µg/mL (≈ 4.1 µM)
CC(C)C1CCC2(C(=O)O)CCC3(C)C(CCC4C5(C)CCC(=NNc6ccc(F)cc6)C(C)(C)C5CCC43C)C12 (centres unmarked) [Derivative 829] | 0.5 µg/mL (≈ 0.885 µM) | 0.5 µg/mL (≈ 0.885 µM) | >10 µg/mL | 0.4 µg/mL (≈ 0.708 µM) | 1.3 µg/mL (≈ 2.3 µM) | >4 µg/mL | >10 µg/mL
C=C(C)C1CCC2(C(=O)OCC(=O)OC)CCC3(C)C(CCC4C5(C)CCC(NCCO)C(C)(C)C5CCC43C)C12 (centres unmarked) [Derivative 1027] | >4.0 µg/mL | 4.5 µg/mL (≈ 7.87 µM) | 5.7 µg/mL (≈ 9.97 µM) | 2.0 µg/mL (≈ 3.5 µM) | 7.2 µg/mL (≈ 12.6 µM) | 7.0 µg/mL (≈ 12.2 µM) | 4.2 µg/mL (≈ 7.34 µM)
CC(C)C1CCC2(C(=O)O)CCC3(C)C(CCC4C5(C)CCC(OS(C)(=O)=O)C(C)(C)C5CCC43C)C12 (centres unmarked) [Derivative 789] | >4.0 µg/mL | 1.4 µg/mL (≈ 2.61 µM) | >10 µg/mL | 2.0 µg/mL (≈ 3.73 µM) | 1.4 µg/mL (≈ 2.61 µM) | 6.5 µg/mL (≈ 12.1 µM) | >10 µg/mL
C=C(C)[C@@H]1CC[C@]2(C(=O)O)CC[C@]3(C)[C@H](CC[C@@H]4[C@@]5(C)CC[C@H](O)C(C)(C)[C@@H]5CC[C@]43C)[C@@H]12 [BA] | 17 µg/mL (≈ 37.2 µM) | 0.7 µg/mL (≈ 1.53 µM) | >10 µg/mL | 1.9 µg/mL (≈ 4.16 µM) | 1.8 µg/mL (≈ 3.94 µM) | 3.2 µg/mL (≈ 7.01 µM) | >10 µg/mL
C=C(C)C1CCC2(C(=O)O)CCC3(C)C(CCC4C5(C)CCC(OS(C)(=O)=O)C(C)(C)C5CCC43C)C12 (centres unmarked) [Derivative 751] | – | >4 µg/mL | >10 µg/mL | 0.65 µg/mL (≈ 1.22 µM) | – | 5 µg/mL (≈ 9.35 µM) | 7.0 µg/mL (≈ 13.1 µM)
C=C(C)C1CCC2(C(=O)O)CCC3(C)C(CCC4C5(C)CCC(OC(=O)Cc6cc(OC)ccc6OC)C(C)(C)C5CCC43C)C12 (centres unmarked) [Derivative 1108] | 1.3 µg/mL (≈ 2.05 µM) | 1.0 µg/mL (≈ 1.58 µM) | >4 µg/mL | 1.5 µg/mL (≈ 2.36 µM) | >10 µg/mL | 4.6 µg/mL (≈ 7.25 µM) | 1.7 µg/mL (≈ 2.68 µM)
